# Measured values from patent US4455441A, “Attractant termiticidal compounds, compositions and methods of use therefor” (Research Foundation of State University of New York, priority 1982, dated 1984).
# Like-named read-outs stand apart in the source and are kept apart here.
# Experiments:
# [1] = system: Reticulitermes flavipes; assay: Bioassay of fluoroalkanols (Petri dish assay), termite toxicity; format: in vivo, Reticulitermes flavipes Kollar; details: quantity impregnated in filter pads required to cause 50% mortality at 3 days
# Method: Test compounds were dissolved in dry diethyl ether or dichloromethane and a 1.0 ml portion of the solution was pipetted onto a Gelman sterile 47-mm cellulose pad (Howard and Haverty, 1979). The ether was allowed to evaporate for 10 min, 1.0 ml of distilled water was added to the pad, and the pad was placed in a tight-sealing Gelman 50-mm plastic Petri dish.
# Termites (Reticulitermes flavipes Kollar) were collected from rotten logs and tree stumps on the Stony Brook campus. Colonies were kept in trash cans in an insectary (85% RH, 27° C.) for a period of about 6 months before use in this experiment. The experiments were performed in an incubator at +28° C. Undifferentiated larvae above the third instar ("workers") were used in all toxicity tests. Termites were first shaken loose from the interior of the wood, then transferred using mouth aspirators and with soft forceps. The termites were held on filter paper for 24 hours, twenty healthy termites were added to each dish, and the number of dead which were then removed to prevent cannibalism was recorded at daily intervals.
# ^c Quantity of fluoro compound impregnated in filter pads required to
# cause 50% mortality at 3 days.
# [2] = system: mice; details: based on Pattison (1959), cited from earlier work
# [3] = system: termites; assay: Maximum attractiveness (above 50% level); format: in vivo
# [4] = system: termites; assay: Trail activity (trail following by termites); format: in vivo; details: at 5 × 10^-6 g/10 c (highest conc. tested)
# Source text: ^a Value is minimum quantity (in grams) per 10 cm required to elicit
# trailfollowing by a total of 8/20 termites in four trails.
# ^b Maximum number of termites following at 5 × 10^-6 g/10 c
# (highest conc. tested).
# [5] = estimate from comparison compound C12 satd.
# [6] = estimate from comparison compound C18 satd.
# [7] = saturated omega-fluoro compound
molecule,measurement,setting,value
16-fluoro-Z/E 9-hexadecen-1-ol,Median Lethal-dose,[1],0.020 mg/dish
same,Estimated LD50 (mice),[2]; [5],1.5 mg/kg
same,Estimated LD50 (mice),[2]; [6],4.0 mg/kg
OCC/C=C\CCCCCCF [10-fluoro-(Z)-3-decen-1-ol],Median Lethal-dose,[1],.0095 mg/dish
same,Estimated LD50 (mice),[2]; estimate from comparison compound C10 satd.,1.0 mg/kg
OCC/C=C\CCCCCCCCF [12-Fluoro-(Z)-3-dodecen-1-ol],Median Lethal-dose,[1],.0093 mg/dish
same,Maximum attractiveness (above 50% level),[3],10^-7 9
same,Estimated LD50 (mice),[2]; [5],1.5 mg/kg
"OCC/C=C\C/C=C\CCCCCF [12-fluoro-(Z),(Z)-3,6-dodecadien-1-ol]",Median Lethal-dose,[1],.012 mg/dish
same,Maximum attractiveness (above 50% level),[3],10^-7 9
same,"Maximum attractiveness (above 50% level), minimum",[3]; minimum,10^-8
same,Estimated LD50 (mice),[2]; [5],1.5 mg/kg
OCCCCCCCC/C=C/CCCCCCF [16-fluoro-Z/E 9-hexadecen-1-ol],Median Lethal-dose,[1],0.024 mg/dish
same,Estimated LD50 (mice),[2]; [5],1.5 mg/kg
same,Estimated LD50 (mice),[2]; [6],4.0 mg/kg
OCCCCCCCCCCCF [F(CH2)10 CH2 OH],Median Lethal-dose,[1],.062 mg/dish
same,"Trail activity, maximum number of termites following",[4],6/20
same,Estimated LD50 (mice),[2]; [7],> 100 mg/kg
"OCCCCCCCCCCCCF [F(CH2)11 CH2 OH, 12-fluorododecan-1-ol]",Median Lethal-dose,[1],.0077 mg/dish
same,"Trail activity, maximum number of termites following",[4],6/20
same,Estimated LD50 (mice),[2]; [7],1.5 mg/kg
